# In US12459932B2, “KIF18A inhibitors” (AMGEN INC., priority 2018, dated 2025):
# Target: T1, Recombinant human KIF18A (1-467 His-tagged) (Homo sapiens, UniProt Q8NI77)
# T1 construct: Recombinant human KIF18A (1-467 His-tagged) protein; His
# Test: KIF18A Enzyme Assay: microtubule-stimulated ATPase activity (ADP-Glo)
# Format: biochemical
# Settings: 30 nM KIF18A, 30 μg/mL pig microtubules, ATP 75 μM (Km), ADP-Glo luminescence
# In short: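 Measures microtubule-stimulated ATPase activity as ADP formed, detected by luminescence. Compounds were tested as 2-fold serial dilutions over 22 points. IC50 values came from four-parameter logistic fits.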
# T1 sequence (Q8NI77 1-467): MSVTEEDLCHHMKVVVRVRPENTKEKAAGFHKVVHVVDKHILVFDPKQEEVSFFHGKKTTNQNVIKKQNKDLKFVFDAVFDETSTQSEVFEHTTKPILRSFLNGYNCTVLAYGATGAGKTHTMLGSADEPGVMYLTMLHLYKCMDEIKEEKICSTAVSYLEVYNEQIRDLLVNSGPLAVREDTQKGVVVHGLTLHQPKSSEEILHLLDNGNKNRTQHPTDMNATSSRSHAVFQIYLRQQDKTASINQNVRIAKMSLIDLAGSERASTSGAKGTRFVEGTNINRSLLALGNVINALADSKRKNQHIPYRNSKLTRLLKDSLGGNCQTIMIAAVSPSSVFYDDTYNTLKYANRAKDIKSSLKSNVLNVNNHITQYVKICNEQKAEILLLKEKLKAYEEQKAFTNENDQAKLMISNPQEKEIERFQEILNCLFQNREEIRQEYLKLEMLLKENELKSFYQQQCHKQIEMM
# T1 sequence (P02550 whole entry partner): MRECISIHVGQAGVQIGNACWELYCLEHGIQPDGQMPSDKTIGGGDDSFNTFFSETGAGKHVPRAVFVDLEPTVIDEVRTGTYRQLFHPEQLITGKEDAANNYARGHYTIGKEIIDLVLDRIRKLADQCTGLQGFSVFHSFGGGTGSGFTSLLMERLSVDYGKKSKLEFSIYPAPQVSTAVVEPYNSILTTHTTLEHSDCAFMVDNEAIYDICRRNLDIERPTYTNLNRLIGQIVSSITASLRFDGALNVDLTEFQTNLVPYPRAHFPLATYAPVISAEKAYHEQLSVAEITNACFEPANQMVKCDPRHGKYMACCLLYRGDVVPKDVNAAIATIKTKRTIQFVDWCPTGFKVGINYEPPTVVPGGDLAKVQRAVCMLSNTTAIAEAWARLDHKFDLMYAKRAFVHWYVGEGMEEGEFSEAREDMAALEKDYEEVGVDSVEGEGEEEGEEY
# T1 sequence (P02554 whole entry partner): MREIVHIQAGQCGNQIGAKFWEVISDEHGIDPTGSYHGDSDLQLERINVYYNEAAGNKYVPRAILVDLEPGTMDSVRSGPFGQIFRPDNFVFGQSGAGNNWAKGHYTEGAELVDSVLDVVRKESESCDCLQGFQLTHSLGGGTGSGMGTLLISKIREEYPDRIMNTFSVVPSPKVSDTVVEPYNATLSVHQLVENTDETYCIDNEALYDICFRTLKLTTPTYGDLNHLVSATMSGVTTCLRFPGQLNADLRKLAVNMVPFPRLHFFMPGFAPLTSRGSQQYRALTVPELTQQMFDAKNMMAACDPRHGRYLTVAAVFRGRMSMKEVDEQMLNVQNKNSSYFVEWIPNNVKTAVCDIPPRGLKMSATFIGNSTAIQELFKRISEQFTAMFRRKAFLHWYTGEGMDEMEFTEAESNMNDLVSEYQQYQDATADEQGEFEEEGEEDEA
row,SMILES,IC50
1,"O=C(Nc1cccc(OCCC(F)(F)F)n1)c1ccc(NS(=O)(=O)CCO)cc1N1CCC2(CC1)CC2 [Example 5, 4-((2-Hydroxyethyl)sulfonamido)-2-(6-azaspiro[2.5]octan-6-yl)-N-(6-(3,3,3-trifluoropropoxy)pyridin-2-yl)benzamide]",0.025 µM
2,"CC1(S(=O)(=O)Nc2ccc(C(=O)Nc3cccc(N4CCC[C@H](O)C4)n3)c(N3CCC4(CC3)CC4)c2)CC1 [Example 3-1, (S)-N-(6-(3-Hydroxypiperidin-1-yl)pyridin-2-yl)-4-((1-methylcyclopropane)-1-sulfonamido)-2-(6-azaspiro[2.5]octan-6-yl)benzamide]",0.056 µM
3,"Cc1cc(NC(=O)c2ccc(S(=O)(=O)NC(C)(C)C)cc2N2CCC3(CC2)CC3)nc(N2CCOCC2)c1 [Example 1-10, 4-(N-(tert-Butyl)sulfamoyl)-N-(4-methyl-6-morpholinopyridin-2-yl)-2-(6-azaspiro[2.5]octan-6-yl)benzamide]",0.222 µM
4,"Cc1cc(NC(=O)c2ccc(NS(=O)(=O)CCO)cc2N2CCC3(CC2)CC3)nc(N2CCO[C@H](C)C2)c1 [Example 7-18, (R)-4-((2-Hydroxyethyl)sulfonamido)-N-(4-methyl-6-(2-methylmorpholino)pyridin-2-yl)-2-(6-azaspiro[2.5]octan-6-yl)benzamide]",0.074 µM
5,"Cc1cc(NC(=O)c2ccc(NS(C)(=O)=O)cc2N2CCC3(CC2)CC3)nc(N2CCC(F)(F)CC2)c1 [Example 7-21, N-(6-(4,4-Difluoropiperidin-1-yl)-4-methylpyridin-2-yl)-4-(methylsulfonamido)-2-(6-azaspiro[2.5]octan-6-yl)benzamide]",0.049 µM
